Like-named read-outs stand apart in the source and are kept apart here.
Columns and labels:
[1] = system: Salmonella typhimurium TA1537; assay: Reverse mutation test (Ames test), strain TA1537; assay type: cell-based
Procedure: (§1) In order to examine gene mutagenicity of Compound 5, reverse mutation test using Salmonella typhimurium TA98 and TA100, TA1535, TA1537 and Escherichia coli WP2uvrA (hereinafter referred to as Ames test) was conducted.
(§2) The test was conducted without addition of S9mix and with addition of S9mix. Dimethylsulfoxide (DMSO) was used as a negative control.
(§3) As a sample solution to be added to a test plate, a 50 mg/mL solution of Compound 5 in DMSO and solutions obtained by diluting this solution with DMSO to have various concentrations were prepared. For positive control without addition of S9mix, when TA98 was used as a test strain, a solution of AF-2 (compound concentration: 1 μg/mL) in DMSO was prepared and used as a sample solution; when TA100 or WP2uvrA was used as a test strain, a solution of AF-2 (compound concentration: 0.1 μg/mL) in DMSO was prepared and used as a sample solution; when TA1535 was used as a test strain, a solution of NaN3 (compound concentration: 5 μg/mL) in water for injection was prepared and used as a sample solution; and when TA1537 was used as a test strain, a solution of 9AA (compound concentration: 800 μg/mL) in DMSO was prepared and used as a sample solution. […]

[2] = system: Salmonella typhimurium TA1535; assay: Reverse mutation test (Ames test), strain TA1535; assay type: cell-based
Procedure: as §1, §2, §3

[3] = system: Salmonella typhimurium TA98; assay: Reverse mutation test (Ames test), strain TA98; assay type: cell-based
Procedure: as §1, §2, §3

Escherichia coli WP2uvrA = assay: Reverse mutation test (Ames test), strain WP2uvrA; assay type: cell-based
Procedure: as §1, §2, §3

[4] = system: Salmonella typhimurium TA98 and TA100, TA1535, TA1537 and Escherichia coli WP2uvrA; assay: Reverse mutation test (Ames test), overall judgment over all strains; assay type: cell-based
Procedure: as §1, §2, §3

[5] = system: Salmonella typhimurium TA100; assay: Reverse mutation test (Ames test), strain TA100; assay type: cell-based
Procedure: as §1, §2, §3

[6] = reported in WO03/106439; cited from earlier work
[7] = [125I]-labeled compounds; cited from earlier work
[8] = target: T1, amyloid in brain (aggregated Aβ1-42 injected into amygdaloid nucleus) (Homo sapiens, UniProt P05067); assay: Confirmation of binding to amyloid in brain (in vitro autoradiogram of brain slice); parameters: species or system male Wistar rat; conditions: rat brain slice immersed in sample solution (0.1 MBq/mL)
T1 construct: Aβ1-42 (manufactured by Wako); purchased Wako
T1 sequence (P05067 672-713 limits assumed): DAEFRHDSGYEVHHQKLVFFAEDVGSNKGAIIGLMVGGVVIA
Procedure: (1) Aβ1-42 (manufactured by Wako) was dissolved in phosphate buffer (pH 7.4) and shaken at 37° C. for 72 hours, to obtain a 1 mg/mL suspension of aggregated Aβ (hereinafter referred to as amyloid suspension in the present Example).
(2) Under thiopental anesthesia, the […] of the amyloid suspension was injected into an amygdaloid nucleus on one side of a male Wistar rat (7-week old). As a control, 2.5 μL of a phosphate buffered physiological saline solution (pH 7.4) was injected into an amygdaloid nucleus on the other side of the rat. A brain was removed from the rat a day after the injection of an amyloid suspension and a phosphate buffered physiological saline solution (pH 7.4) to prepare a brain slice of 10 μm in thickness with a microtome (type: CM3050S, manufactured by LEICA).
(3) Compound 6 in diethylether solution was diluted with a 1% bovine serum albumin/phosphate buffer (hereinafter referred to as 1% PB/BSA in the present Example) to obtain a sample solution (0.1 MBq/mL in radioactivity concentration). […]
(5) After the completion of the image analysis using the Bio-imaging Analyzer, pathological staining with Thioflavin T was carried out to perform imaging by use of a fluorescence microscope (manufactured by NIKON Corporation; type: TE2000-U model; excitation wavelength: 400-440 nm; detection wavelength: 470 nm). […]

[9] = rats, [11C]-labeled; cited from earlier work

COc1ccc2nc(-c3ccc(OCCCF)c(I)c3)cn2c1 [Compound 5, 2-[4′-(3″-fluoropropoxy)-3′-iodophenyl]-6-methoxyimidazo[1,2-a]pyridine]
Mutagenicity, TA1537 ([1]; with addition of S9mix): Negative
Mutagenicity, TA1537 ([1]; without addition of S9mix): Negative
Mutagenicity, TA1535 ([2]; with addition of S9mix): Negative
Mutagenicity, TA1535 ([2]; without addition of S9mix): Negative
Mutagenicity, TA98 ([3]; with addition of S9mix): Negative
Mutagenicity, TA98 ([3]; without addition of S9mix): Negative
Mutagenicity, WP2uvrA (Escherichia coli WP2uvrA; with addition of S9mix): Negative
Mutagenicity, WP2uvrA (Escherichia coli WP2uvrA; without addition of S9mix): Negative
Judgment in the Ames test (mutagenicity) ([4]; all strains, with and without S9mix): negative
Number of reverse mutation colonies relative to the negative control ([4]; regardless of addition of S9mix and addition amount): less than two times
Mutagenicity, TA100 ([5]; with addition of S9mix): Negative
Mutagenicity, TA100 ([5]; without addition of S9mix): Negative

CN(C)c1ccc(-c2cn3cc(I)ccc3n2)cc1 [IMPY, 6-iodo-2-[4′-(N,N-dimethylamino)phenyl]imidazo[1,2-a]pyridine]
Result in reverse mutation test [6]: positive
Clearance from normal tissues [7]: rapid clearance from normal tissues

COc1cc(OCCO)ccc1-c1cn2cc([123I])ccc2n1
Binding to intracerebral amyloid [8]: property of binding to intracerebral amyloid

CNc1ccc(/C=C/c2ccc(O)cc2)cc1 [SB-13, (E)-4-methylamino-4′-hydroxystilbene]
Clearance from normal tissues [9]: shows a clearance from normal tissues

— patent publication US8399672B2, “Compound having affinity for amyloid” (Nihon Medi-Physics Co., Ltd., priority 2007, dated 2013)
